Data: US6468505B1, “Technique to monitor drug delivery noninvasively in vivo” (Philipp Lang, priority 1997, dated 2002)

Experiments:
[1] = unencapsulated, free chelate; cited from earlier work
[2] = NMR relaxometry of GdDTPA-BMA containing liposomes in vitro (inversion recovery T1); assay type: physicochemical; conditions: GdDTPA-BMA in solution of solubilized liposome (0.1% C12E8), 1 mM Gd
Procedure: NMR relaxometry and magnetic resonance (MR) imaging were performed using a 2.0 Tesla small bore magnet (Bruker Omega 2.0T System, Bruker Instruments, Inc., Fremont, Calif.) equipped with actively shielded gradients (Accustar™ S-150, Bruker Instruments, Inc., Fremont, Calif.) capable of delivering field gradients up to 20 G/cm along each axis (X, Y and Z).
T1 relaxation rates of various liposome suspensions with a mean diameter of 110 nm were determined by standard inversion recovery measurment. The content of GdDTPA-BMA in liposome suspensions was estimated from NMR relaxometry. An inversion recovery NMR spectroscopy pulse sequence was performed in which a nonselective composite inversion pulse (90x-180y-90x) was applied, followed by a gradient spoiler pulse to eliminate residual coherent in-plane magnetization. After a variable delay time (TI), z-magnetization was sampled by a nonselective 90° radiofrequency pulse and the signal was recorded. The inversion recovery signal profile was obtained from at least forty such measurements in which the TI delay was incremented from 20 ms to a value that was at least 3-fold greater than the T1.
Mz(TI)/M∞=1−k exp(TI/T1) Eq. 1,
in which Mz(TI) is the signal intensity measured at a particular value of TI, M∞ is the fully relaxed signal intensity, and k has the value of 2.0 if the inversion pulse is exactly 180°. […]

| Relaxivity=ΔR1/[Gd] [2] [s⁻¹ mM⁻¹] | SMILES | biologic half-life [1] |
| --- | --- | --- |
| – | O=C([O-])CN(CCN(CC(=O)[O-])CC(=O)O)CCN(CC(=O)[O-])CC(=O)O.[Gd+3] [Gd-DTPA, gadolinium-diethylene triamine pentaacetic acid] | approximately 30 min |
| 4.07 | CNC(=O)CN(CCN(CCN(CC(=O)[O-])CC(=O)NC)CC(=O)[O-])CC(=O)[O-].[Gd+3] [Gd-DTPA-BMA, Gadolinium-diethylene-triamine-pentaacetic-acid-bis-methylamide] | approximately 30 min |
